Source: patent publication US7223733B2, “Modulation of TRIP-Br function and method of treating proliferative disorders” (National University of Singapore, priority 2004, dated 2007)
Where no end group is shown, it is not given here.

Key:
[1] = system: minimal luciferase reporter (pGL3-TATA-Luc); experiment: TATA-containing minimal luciferase reporter assay in U2OS cells; format: cell-based, human; conditions: 50 μM, 5 h
Procedure: DNA Transfection and Sequential β-Galactosidase/Luciferase Assay. For luciferase reporter assays, U2OS cells were cultured in 6-well dishes and transfected 24 h later with various reporter plasmids by the calcium precipitation method as previously described (Martin, K., et al. Nature 375, 691-694 (1995)). 24 h following precipitate removal, cells were exposed for 5 h to either vehicle (0.5% DMSO) or 50 μM of decoy peptide, prior to harvesting. Cells were scraped in 200 μl of lysis buffer and a single 10 μl aliquot of lysate was immediately used for sequential measurement of β-galactosidase and luciferase activity using the Dual Light System (Tropix). For protein overexpression experiments, U2OS cells were cultured in 6-well plates at a density of 1×10^5 cells/well and transfected 24 h later with Superfect reagent (QIAGEN).
FIG. 3: Analysis of E2F-responsive transcription in U2OS cells in response to decoy peptide treatment. (A) β-galactosidase/Luciferase assay of U2OS cells co-transfected with 0.1 μg of pCMV/β-galactosidase and 7.5 μg of the indicated luciferase reporter plasmids. Promoter activity of vehicle-treated samples was normalized to 100% and the activities of the peptide-treated samples were expressed relative to the vehicle-treated control. Values represent the average +/− standard deviation of at least two independent experiments; (B) Semi-quantitative RT-PCR analysis on total RNA for dhfr, cyclin-E, cyclin A2, PCNA, DNA Pola and cdc2 expression in U2OS cells exposed for 16 h to either vehicle (0.5% DMSO) or 50 μM of the indicated decoy peptides. H-actin was included as an internal control.
The PHD-bromodomain-interacting function of TRIP-Br proteins co-regulate E2F-dependent transcriptional activity in vivo. […] U2OS cells were chosen for this assay because they express functional E2F-1, DP-1, Rb and detectable levels of endogenous TRIP-Br1 (as assessed by Western blot analysis using a rabbit polyclonal anti-TRIP-Br1 antibody (Hsu, S. I. H., et al. EMBO J 20, 2273-2285 (2001)); data not shown). […]

U2OS cells = experiment: Cell number (Coulter counter) and viability (trypan blue) of U2OS cells; format: cell-based, human; conditions: for total cell number over time: 50 μM, 0, 48 and 72 h, Coulter counter; for viable cells, trypan blue manual count: 50 μM, 72 h, compared to vehicle or *SCR
Procedure: Determination of cell number and viability. U2OS cells grown in 6-well dishes for 24 h were exposed to 2 ml of growth medium containing either vehicle (0.5% DMSO) or 50 μM decoy peptides for 48 or 72 h. Following treatment, the cells were washed twice with 1×PBS, harvested by trypsinization and re-suspended in 1 ml 1×PBS. 10 μl of cell suspension was taken from each sample and enumerated either electronically or manually. For electronic total cell counts, 10 μl of cell suspension was diluted in 20 ml of isoton® II buffer (Coulter®) and cell number was estimated using an electronic Coulter® counter. For manual counting of viable cells, 10 μl of cell suspension from each sample was mixed with equal volume of trypan blue stain (Sigma, 0.4% w/v in 1×PBS). The number of viable (unstained) cells was enumerated manually using a hemocytometer. FIG. 4: Time-dependent and dose-dependent anti-proliferative effects of the decoy peptides. (A) Time-dependent anti-proliferative effects of the decoy peptides. U2OS cells, exposed to either vehicle (0.5% DMSO) or 50 μM decoy peptides for either 24 or 48 h, were assayed for BrdU incorporation with a colorimetric ELISA assay. Values represent the average +/− standard deviation of two independent experiments; (B) Dose-dependent anti-proliferative effects of the decoy peptides. U2OS cells, exposed to 5, 10, 20 or 50 μM of *SCR (solid line and square), *Br1 (dashed line and triangle) or *Br2 (dashed line and circle) for 48 h, were assayed for BrdU incorporation with a colorimetric ELISA assay. Values represent the average +/− standard deviation of at least two independent experiments; (C) Cell proliferation analysis. Left panel: At 0, 48 and 72 h post decoy peptide treatment, total cell number was determined electronically using a Coulter® counter. Right panel: At 72 h post-treatment, cells were harvested and stained with trypan blue for viable cell count analysis.

[2] = system: KRIP-1/TRIP-Br PHD-bromodomain interaction; experiment: Immunoprecipitation assay of GAL4-KRIP-1/TRIP-Br complex formation (in vitro translated proteins); format: binding; conditions: 25 μM decoy peptides pre-incubated with GAL4-KRIP-1
Chain of KRIP-1/TRIP-Br PHD-bromodomain interaction (Q62318 621-811 limits assumed): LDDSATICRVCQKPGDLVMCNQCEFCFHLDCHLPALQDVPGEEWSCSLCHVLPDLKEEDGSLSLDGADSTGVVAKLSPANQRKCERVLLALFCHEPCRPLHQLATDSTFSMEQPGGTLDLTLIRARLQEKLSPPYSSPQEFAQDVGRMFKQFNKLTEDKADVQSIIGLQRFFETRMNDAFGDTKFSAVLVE
Procedure: Preparation of proteins by in vitro translation. In vitro translation (IVT) products were synthesized from pcDNA3/TRIP-Br1, pcDNA3/TRIP-Br2 and pBlueScript/GAL4-KRIP-1 using the TNT T7 coupled reticulocyte lysate system (Promega). The in vitro translation reactions were carried out in a total reaction volume of 50 μl by incubating 1.0 μg of the indicated DNA template in nuclease-free water with 30 μl of TNT Quick master mix in the presence of [^35S]-methionine (Met) at 30° C. for 90 minutes.
Immunoprecipitation assay (IP). The binding reactions for IP were performed by incubating 1.5 μl [^35S]-Met labeled GAL4 or GAL4-KRIP-1 IVT products with 3 μl [^35S]-Met labeled TRIP-Br1 or TRIP-Br2 IVT products in 1×IP buffer (Hsu, S. I. H., et al. EMBO J. 20, 2273-2285 (2001)) at 4° C. for 1 h. For the analysis of decoy peptide-mediated blocking activity, the GAL4-KRIP-1 IVT product was pre-incubated with 25 μM decoy peptides at 4° C. for 30 minutes prior to addition of full-length TRIP-Br1 or TRIP-Br2 IVT products. Protein complexes precipitated using agarose-conjugated anti-GAL4 antibody were resolved by SDS-PAGE and then processed for autoradiography.
FIG. 1: TRIP-Br decoy peptides antagonize KRIP-1/TRIP-Br PHD-bromodomain interactions. […] GAL4-KRIP-1 was specifically immunoprecipitated by the agarose-conjugated anti-GAL4 antibody (Lanes 3-5 & 7–10) but not by the non-specific control anti-cyclin E antibody (Lane 6); (B) Antagonism of PHD-bromodomain interactions in vivo. U2OS cells were transiently transfected with 0.4 μg of the indicated GAL4 expression constructs and 1.2 μg of pMT3A/KRIP-1, along with 0.4 μg of the minimal luciferase reporter pG5-GL3 and 0.1 μg of the control reporter pCMV/β-gal. The transfected cells were exposed to either vehicle (0.5% DMSO) or 50 μM of the indicated decoy peptides prior to harvesting for sequential assay of luciferase and galactosidase activity. Fold activation refers to luciferase activity normalized to β-galactosidase activity, and is expressed relative to the activity observed with transfection of the reporter alone. […]

ERQIKIWFQNRRMKWKKTGFLTDLTLDDILFADID (ERQIKIWFQNRRMKWKKTGFLTDLTLDDILFADID-NH2) [*Br2]
transcriptional activity of the minimal reporter [1]: did not alter the transcriptional activity of the minimal reporter significantly
total cell number over time (U2OS cells): nearly complete cessation of cell proliferation
viable cells, trypan blue manual count (U2OS cells): significantly fewer viable cells
GAL4-KRIP-1/TRIP-Br complex formation (co-IP of TRIP-Br1 or TRIP-Br2) [2]: dramatically reduced the ability of GAL4-KRIP-1 to co-IP TRIP-Br1 or TRIP-Br2

ERQIKIWFQNRRMKWKKATGCLLDDGLEGLFEDID (ERQIKIWFQNRRMKWKKATGCLLDDGLEGLFEDID-NH2) [*Br1]
transcriptional activity of the minimal reporter [1]: slight activation
total cell number over time (U2OS cells): nearly complete cessation of cell proliferation
viable cells, trypan blue manual count (U2OS cells): significantly fewer viable cells
GAL4-KRIP-1/TRIP-Br complex formation (co-IP of TRIP-Br1 or TRIP-Br2) [2]: dramatically reduced the ability of GAL4-KRIP-1 to co-IP TRIP-Br1 or TRIP-Br2

ERQIKIWFQNRRMKWKKGLDEDGLLLFCEGDTIAD (Peptide containing penetratin sequence from Drosophila and random peptide sequence) [*SCR, reference compound]
transcriptional activity of the minimal reporter [1]: slight activation
total cell number over time (U2OS cells): nearly identical increments in cell number over time
GAL4-KRIP-1/TRIP-Br complex formation (co-IP of TRIP-Br1 or TRIP-Br2) [2]: did not affect GAL4-KRIP-1/TRIP-Br complex formation
